{"source": "patent US11142796B2", "about": "“MIR-18B for use as a marker of cancer progression and target for therapies to treat cancer” (SUTTER WEST BAY HOSPITALS, priority 2012, dated 2021)", "key": {"[1]": {"tested_on": "miR-18b expression", "test": "miR-18b expression by miR qRT-PCR in drug-treated melanoma cells", "type": "cell-based, human", "source_text": "The DO4, WM3211, 1205-Lu, C8161.9, WM278 and Lox melanoma cell lines were obtained and propagated as described in Dar et al., J Biol Chem 286:16606-14 (2011). Normal human melanocytes (HEM) were purchased from Lifeline cell technology and grown in LL-0027 media (Lifeline cell technology, Walkersville Md.). Plasmids miRNASelect™ pEP-miR Null control vector (pEP Null), miRNASelect™ pEP-hsa-mir-18b expression vector (pEP miR-18b) (Cell Biolabs Inc, San Diego Calif.) were purchased. TaqMan probes for hsa-miR-18b and negative control pre-miR (cont. miR) were purchased from Applied Biosystems (Foster City, Calif.). Sub-confluent cells (60-70% confluent) were treated with 5-AZA-2′-deoxycytidine (5AZA) (Sigma Aldrich, St. Louis Mo.) dissolved in dimethyl-sulfoxide. Cells treated with vehicle served as control. Transient transfections were carried out by Lipofectamine-2000 (Invitrogen Life Technologies, Carlsbad, Calif.) following the manufacturer's protocol.\nMature miRNAs and other mRNAs were assayed using the TaqMan MicroRNA Assays and Gene Expression Assays (Applied Biosystems), respectively, as previously described in Dar et al., J Biol Chem 286:16606-14 (2011)."}, "[2]": {"tested_on": "LOX human melanoma cells", "test": "Cell proliferation, LOX", "type": "cell-based", "settings": "LOX cells transfected with miR-18b", "description": "(§1) Cell viability, colony formation and flow cytometry analysis were performed as described previously in Dar et al., J Biol Chem 286:16606-14 (2011); and Dar et al., J Invest Dermatol 130:2071-9 (2010))."}, "[3]": {"tested_on": "LOX human melanoma cells", "test": "Cell cycle analysis, LOX", "type": "cell-based", "settings": "LOX cells transfected with miR-18b", "description": "as §1"}, "[4]": {"tested_on": "chromatin modifications", "test": "Chromatin immunoprecipitation analysis after miR-18b overexpression", "type": "cell-based, human", "description": "Chromatin immunoprecipitation analysis was performed using the EZ-ChIP kit (Upstate Biotechnology, Charlottesville, Va.) according to the manufacturer's directions and as described in Majid et al., Carcinogenesis 30: 662-70 (2009). Antibodies used in the immunoprecipitations were purchased from Upstate Biotechnology and Ambion (Austin, Tex.) and were specific for acetyl histone H3 (06-599), acetyl histone H4 (06-866), dimethyl-histone H3 lysine 4 (07-030), trimethyl-histone H3 lysine 4(07-473), dimethyl-histone H3 lysine 9 (07-441) and trimethyl-histone H3 lysine 9 (ab8898). The immunoprecipitated DNA was eluted in a total volume of 50 μl and 2 μl were used for PCR."}, "[5]": {"tested_on": "MDM2 (and the p53 pathway)", "test": "Western blot analysis of MDM2 and p53 pathway proteins", "type": "cell-based, human", "description": "(§2) Cell lysates were prepared in PBS containing 1×Halt protease inhibitor cocktail and 1×Halt phosphatase inhibitor cocktail (Pierce, Rockford, Ill.) centrifuged at 3500 r.p.m. for 10 min at 4° C. Proteins (10-15 ug) from each sample were subjected to SDS/polyacrylamide gel electrophoresis (PAGE) and transferred onto a nitrocellulose membrane. Target proteins were detected by using specific antibodies against MDM2, p53, p21, BCL-2 and GAPDH (Santa Cruz Biotechnology, Santa Cruz, Calif.), and PUMA, BCL-XL (Cell Signaling Technology, Danvers, Mass.)."}, "[6]": {"tested_on": "1205-Lu melanoma cells", "test": "Invasion assay (matrigel-coated boyden chamber)", "type": "cell-based, human", "settings": "miR-18b over-expression; vs cont.miR", "description": "(§3) For 1205-Lu cells boyden chamber inserts were coated with 15 μl matrigel at 6 mg/ml protein. For migration assay boyden chamber inserts were not coated and cells were directly added to them."}, "[7]": {"tested_on": "E-cadherin, vimentin, N-cadherin and slug", "test": "EMT markers by immunofluorescence and Western blot", "type": "cell-based, human", "settings": "miR-18b overexpression in 1205-Lu", "description": "as §2\n1205-Lu cells were plated in 8-well plate chamber. Immunofluorescence assay was performed as previously described in Dar et al., Oncogene 28: 866-75 (2009). N-cadherin, vimentin, slug and E-cadherin antibodies (Cell signaling) were used in the assay."}, "[8]": {"tested_on": "1205-Lu cells", "test": "Subcutaneous tumor growth of 1205-Lu cells stably expressing miR-18b", "type": "in vivo, nude mice", "description": "1205-Lu cells were transfected with pEP Null or pEP miR-18b vectors (Cellbiolabs, San Diego Calif.) and selected with puromycin (1 μg/mL). For in-vivo studies as described previously in Dar et al., J Invest Dermatol 130:2071-9 (2010), 1×10^6 cells were injected into nude mice subcutaneously and tumor growth was followed for 24 days. All animal care was in accordance with the institutional guidelines."}, "[9]": {"tested_on": "1205-Lu cells", "test": "Apoptosis assay, 1205-Lu", "type": "cell-based, human", "description": "as §1"}, "[10]": {"tested_on": "LOX human melanoma cells", "test": "Colony formation, LOX", "type": "cell-based", "settings": "LOX cells transfected with miR-18b", "description": "as §1"}, "[11]": {"tested_on": "1205-Lu cells", "test": "Colony formation assay, 1205-Lu", "type": "cell-based, human", "description": "as §1"}, "[12]": {"tested_on": "3′UTR of MDM2", "test": "Luciferase reporter assay with MDM2-3′UTR", "type": "cell-based, human", "source_text": "The 3′-UTR region of MDM2 containing target site sequences complementary to the seed sequence of miR-18b were cloned downstream of the luciferase gene in the pMIR-REPORT luciferase vector (Ambion, Cambridge Mass.), and the resultant vectors were named MDM2-3′UTR. Mutated 3′UTR sequences of MDM2 complementary to miR-18b were cloned in the same vector and the resultant vectors named MDM2-Mut 3′UTR. For reporter assays, cells were transiently transfected with wild-type or mutant reporter plasmid and miR-18b. Firefly luciferase activities were measured by using the Dual Luciferase Assay (Promega, Madison, Wis.) 48 hr after transfection and the results were normalized with Renilla luciferase. Each reporter plasmid was transfected at least three times (on different days) and each sample was assayed in triplicate."}, "[13]": {"tested_on": "1205-Lu cells", "test": "Cell cycle analysis (flow cytometry), 1205-Lu", "type": "cell-based, human", "description": "as §1"}, "[14]": {"tested_on": "1205-Lu melanoma cells", "test": "Migration assay (boyden chamber)", "type": "cell-based, human", "settings": "miR-18b over-expression; vs cont.miR", "description": "as §3"}, "[15]": {"tested_on": "C8161.9 melanoma cell lines", "test": "Cell survival, MDM2 and p53 expression in mutant p53 cells", "type": "cell-based, human", "settings": "C8161.9 cells harboring mutant p53", "description": "as §1, §2"}, "[16]": {"tested_on": "LOX human melanoma cells", "test": "Apoptosis assay, LOX", "type": "cell-based", "settings": "LOX cells transfected with miR-18b", "description": "as §1"}, "[17]": {"tested_on": "1205-Lu cells", "test": "Cell proliferation / viability, 1205-Lu", "type": "cell-based, human", "description": "as §1"}, "[18]": {"settings": "1205-Lu co-transfection with empty vector or MDM2-expressing vector"}, "[19]": {"settings": "1205-Lu stably overexpressing miR-18b"}, "[20]": {"settings": "transient miR-18b overexpression"}, "[21]": {"settings": "stable expression of miR-18b, vs control vector"}, "[22]": {"settings": "transient transfection, vs cont.miR"}}, "note": "“Also recorded” adds a separate entry of the source."}
{"molecule": "N.N.[Cl][Pt][Cl]", "note": "[cisplatin]", "values": [{"measurement": "miR-18b expression", "setting": "[1]; 1205-Lu cells, 2 nM cisplatin for 48 hr, vs vehicle-treated cells", "value": "significantly upregulated"}, {"measurement": "miR-18b expression", "setting": "[1]; 1205-Lu cells, 2 nM cisplatin for 48 hr, vs vehicle-treated cells, listed as Cisplatin", "value": "induced expression of miR-18b"}]}
{"molecule": "miR-18b: microRNA, mature miR-18b-5p UAAGGUGCAUCUAGUGCAGUUAG (SEQ ID NO:1); transfected or stably expressed from pEP-hsa-mir-18b expression vector (listed as Homo sapiens)", "values": [{"measurement": "cell proliferation", "setting": "[2]", "value": "significant decrease"}, {"measurement": "S-phase", "setting": "[3]", "value": "significant decrease"}, {"measurement": "active chromatin modifications (acetylated histones H3, H4 and H3 di-methylated lysine 4)", "setting": "[4]", "value": "enrichment"}, {"measurement": "repressive chromatin modifications (2H3K9 and 3H3K9)", "setting": "[4]", "value": "suppression"}, {"measurement": "gene expression (MDM2, p53 pathway)", "setting": "[5]; [18]", "value": "suppression of MDM2, activation of the p53 pathway"}, {"measurement": "MDM2 expression", "setting": "[5]; [19]", "value": "significantly downregulated"}, {"measurement": "expression of p53 and PUMA", "setting": "[5]; [19]", "value": "concomitant increase"}, {"measurement": "p14ARF expression", "setting": "[5]; following miR-18b overexpression", "value": "unchanged"}, {"measurement": "MDM2 at the protein level", "setting": "[5]; [20]", "value": "significantly suppressed"}, {"measurement": "anti-apoptotic genes BCL2 and BCL-XL", "setting": "[5]; [20]", "value": "downregulation"}, {"measurement": "pro-apoptotic genes p53 and PUMA", "setting": "[5]; [20]", "value": "concomitant upregulation"}, {"measurement": "invasiveness", "setting": "[6]", "value": "significantly suppressed"}, {"measurement": "epithelial biomarker E-cadherin", "setting": "[7]", "value": "significant upregulation"}, {"measurement": "mesenchymal markers vimentin, N-cadherin and slug", "setting": "[7]", "value": "reduced"}, {"measurement": "tumor growth in vivo", "setting": "[8]; subcutaneous inoculation into nude mice, followed for 24 days, vs control vector cells", "value": "significantly suppressed"}, {"measurement": "MDM2 at the protein level in tumors", "setting": "[8]; subcutaneous tumors, vs control tumors", "value": "suppressed"}, {"measurement": "apoptotic index", "setting": "[9]; stable expression of miR-18b", "value": "significant increase"}, {"measurement": "apoptosis", "setting": "[9]; transient overexpression, cont.miR 2.87%, p<0.01", "value": 11.30, "unit": "%"}, {"measurement": "colony formation", "setting": "[10]", "value": "significant decrease"}, {"measurement": "colony formation", "setting": "[11]; [21]", "value": "significant decreases"}, {"measurement": "colony formation ability", "setting": "[11]; [22]", "value": "low colony formation ability"}, {"measurement": "reporter activity, mutant 3′UTR", "setting": "[12]; MDM2-Mut 3′UTR, 1205-Lu and LOX cells", "value": "no effect"}, {"measurement": "reporter expression, MDM2-3′UTR construct", "setting": "[12]; transient co-transfection into 1205-Lu and LOX cells, 48 hr, vs control vector", "value": "significant decrease"}, {"measurement": "cells in S-phase", "setting": "[13]; [21]", "value": "significant decreases"}, {"measurement": "cells in S-phase", "setting": "[13]; transient overexpression, cont.miR 15.5%, p<0.02", "value": 8.05, "unit": "%"}, {"measurement": "migratory ability", "setting": "[14]", "value": "significantly suppressed"}, {"measurement": "cell survival, MDM2 and p53 expression levels", "setting": "[15]", "value": "no effect"}, {"measurement": "apoptosis", "setting": "[16]", "value": "increase"}, {"measurement": "melanoma cell survival", "setting": "[17]; [18]", "value": "suppressed melanoma cell survival"}, {"measurement": "cell proliferation with BRAF inhibitor", "setting": "[17]; 1205-Lu transfected with miR-18b vs Neg-miR, treated with dabrafenib, 48 hrs", "value": "sensitized melanoma cell lines to BRAF specific inhibitor; also recorded: additive effect"}, {"measurement": "sensitivity to cisplatin cytotoxicity", "setting": "[17]; melanoma cells treated with miR-18b", "value": "enhanced sensitivity"}, {"measurement": "cell proliferation", "setting": "[17]; [21]", "value": "significantly suppressed"}, {"measurement": "cell proliferation over time", "setting": "[17]; [22]", "value": "significantly decreased"}]}
{"molecule": "Nc1ncn([C@H]2C[C@H](O)[C@@H](CO)O2)c(=O)n1", "note": "[5AZA, 5-AZA-2′-deoxycytidine]", "values": [{"measurement": "miR-18b expression", "setting": "[1]; five melanoma cell lines (C8161.9, LOX, 1205-Lu, DO4, WM278), 5AZA 5 μM, vs vehicle", "value": "significant upregulation"}]}
